Laboratory results from article PMC6934184, “Selective DNA-PKcs inhibition extends the therapeutic index of localized radiotherapy and chemotherapy” (The Journal of Clinical Investigation, 2019).

Biological target: T1, EEF2K (Homo sapiens, UniProt O00418)
T1 construct: purchased Thermo Fisher Scientific (Life Technologies) SelectScreen
Assay: SelectScreen Z'LYTE
Assay type: biochemical
How it was run: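 NU5455 was profiled across the SelectScreen Broad panel of kinase activity and binding assays. Z'LYTE reactions such as CSF1R ran at apparent Km ATP, while the Adapta CAMK1 assay used ATP listed as 10. Values are given as percent.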

Question: With `CN(C(=O)CN1CCOCC1)c1ccc2sc3c(-c4cccc5c(=O)cc(N6CC7CCC(C6)O7)oc45)cccc3c2c1` [NU5455] as the molecule, how does the inhibition at 1 µM read?
Answer: -2.4%
